≈ marks a conversion by molar mass, not a printed value. Where “and” joins values, the source holds several entries; their conditions need not be identical. Equal entries are not always repeated. Where two headings read alike, the source gives them in different places.
Tests used:
[1] = Solubility enhancement with acidic and basic in situ salt formers (~[…])
[2] = humans, given as a nutritional additive; cited from earlier work
[3] = cited from earlier work
[4] = Dilution experiments of saturated HDACi/salt former solutions; type: physicochemical; settings: for appearance after dilution with pH 7.4 phosphate buffer: 0.47 M and 0.314 M saturated samples
[5] = Phase solubility for arginine and meglumine
[6] = pH solubility profile in buffered 25% w/v HP-β-CD; type: physicochemical
Text: It was noted that zwitterions can be self-buffering and this effect caused some instability in the buffering capacity of the buffer systems at high pH. Therefore, the required pH could only be achieved by adjusting the pH of the system by the addition of 1 M NaOH.

[7] = human, in vivo, iv
[8] = Plasma PK analysis after 30-min I.V. infusion in subjects with advanced cancer; type: in vivo, human
Procedure: Plasma PK analysis was performed for subjects of all dose groups on days 1 and 5 of cycle 1 following 30 minutes of I.V. infusion.

[9] = Solubility enhancement with cyclodextrin and in situ salt formers; type: physicochemical
[10] = Solubility of PXD-101 in demineralised water; type: physicochemical
[11] = Oral administration of PXD-101 (gelatin capsule) to subjects; type: in vivo, human
Text: Several subjects received PXD-101 in an oral formulation (e.g., PXD-101 in a gelatin capsule). […] Bioavailability for the oral formulation was approximately 33%.

[12] = tested on: histone (H4 and/or H3) acetylation in peripheral blood mononuclear cells; assay: Pharmacodynamic analysis: histone acetylation in peripheral blood mononuclear cells; type: in vivo, human; settings: intravenous administration
Text: Histones were isolated and probed with anti-acetylated histone (H4 and/or H3) antibody followed by HRP-secondary antibody.

[13] = physchem; settings: thermodynamic from solid, PXD-101 Concentration
[14] = Solubility enhancement with cyclodextrins (saturated PXD-101 samples; HP-β-CD phase solubility); type: physicochemical; settings: saturated PXD-101 in aqueous cyclodextrin 250 mg/mL (α-CD 100 mg/mL)
Procedure: Saturated samples of PXD-101 were prepared in aqueous solutions of two natural cyclodextrins (α-CD and γ-CD) and hydroxypropyl derivatives of the α, β and γ cyclodextrins (HP-α-CD, HP-β-CD and HP-γ-CD). […] The calculated saturated solubilities of the complexed HDACi were plotted against the concentration of cyclodextrin. […] This type of phase solubility diagram for cyclodextrins is referred to as an A-Type phase solubility plot. […] This deviation may be due to experimental error caused by the decision to use of mass, instead of volume, to dispense the more concentrated cyclodextrin samples due to their viscosity. Alternatively, it is possible that there is a slight deviation from the linear A-Type phase solubility behaviour.

[15] = PXD-101 in acidic in situ salt former, […]
[16] = 150 mg/m^2, 30-min I.V. infusion, cycle 1
[17] = 300 mg/m^2, 30-min I.V. infusion, cycle 1
[18] = 600 mg/m^2, 30-min I.V. infusion, cycle 1
[19] = 900 mg/m^2, 30-min I.V. infusion, cycle 1
[20] = 1200 mg/m^2, 30-min I.V. infusion, cycle 1
[21] = PXD-101 in basic in situ salt former, […]

With `O=C(O)CC(O)C(=O)O` (centres unmarked) [Malic Acid] the “pH of Solution” value [1, 15] was 2.19 and the “S/D Molar ratio (salt former-to-HDACi)” value ([1]; acidic in situ salt former, […]) was 309.

For `N=C(N)NCCC[C@H](N)C(=O)O` [Arginine, (S)-2-amino-5-[(aminoiminomethyl)-amino]pentanoic acid], the well tolerated dose [2] is given as “up to 30 g/kg”, the “content of saturated aqueous solution” value ([3]; water, 21° C.) is given as 15 % w/w and the “appearance after dilution with pH 7.4 phosphate buffer” value [4] is given as “initially clear solutions but some crystallisation”.

With `CNC[C@H](O)[C@@H](O)[C@H](O)[C@H](O)CO` [Meglumine, 1-deoxy-1-(methylamino)-D-glucitol] the “pH of saturated HDACi solution” value ([5]; basic salt ×1, 0.157 M) was 9.20, the “pH of saturated HDACi solution” value ([5]; basic salt ×2, 0.314 M) was 9.33 and the “pH of saturated HDACi solution” value ([5]; basic salt ×3, 0.47 M) was 9.40. The “Predicted Salt Former Conc. to achieve target PXD-101 Conc.” value ([5]; target PXD-101 50 mg/mL) was 79.2 mg/mL, the “Predicted Salt Former Conc. to achieve target PXD-101 Conc.” value ([5]; target PXD-101 70 mg/mL) was 126.9 mg/mL and the “Predicted Salt Former Conc. to achieve target PXD-101 Conc.” value ([5]; target PXD-101 100 mg/mL) was 158.3 mg/mL. For the same compound, the solubility in water ([3]; 25° C.) was about 100 g in 100 mL and the “appearance after dilution with pH 7.4 phosphate buffer” value [4] was “turbid solutions”.

For `NCCN` [Ethylenediamine], the “dilution of saturated HDACi solution to infusion concentration of […]” value ([4]; basic salt former solutions diluted with 5% w/v glucose and 0.9% w/v saline) was “incompatibility”.

In the case of `O=C(/C=C/c1cccc(S(=O)(=O)Nc2ccccc2)c1)NO` [PXD-101, N-hydroxy-3-(3-phenylsulfamoyl-phenyl)-acrylamide], the “PXD-101 Conc.” value ([6]; pH adjusted with 1M NaOH, actual pH 8.91) is reported as 36.0 mg/mL, the “PXD-101 Conc.” value ([6]; target pH 4, actual pH 4.35) is reported as 14.5 mg/mL and the “PXD-101 Conc.” value ([6]; target pH 6, actual pH 5.99) is reported as 17.3 mg/mL. For the same compound, the “PXD-101 Conc.” value ([6]; target pH 7.4, actual pH 7.28) was 18.8 mg/mL, the “PXD-101 Conc.” value ([6]; target pH 9.5, actual pH 8.09) was 19.4 mg/mL and the “laboratory tests / hematological toxicity” value [7] was “no hematological toxicity was identified”. For the same compound, the “main HDACi-related adverse events” value [7] was “fatigue, nausea, vomiting (infusion-related), and phlebitis”, the other adverse events [7] was “headache, diarrhea, constipation, and dyspnea” and the “AUC0-t/AUC0-∞” value [8, 16] was 99.0 ± 0.7%. For the same compound, the “AUCday 5/AUCday 1” value [8, 16] was 115 ± 22%, the CLs [8, 16] was 122.6 ± 30.6 L/hr/m^2 and the Vd [8, 16] was 115.1 ± 43.5 L/m^2. For the same compound, the “AUC0-t/AUC0-∞” value [8, 17] was 99.7 ± 0.1%, the “AUCday 5/AUCday 1” value [8, 17] was 112 ± 21% and the CLs [8, 17] was 94.6 ± 34.9 L/hr/m^2. For the same compound, the Vd [8, 17] was 88.8 ± 31.8 L/m^2, the “AUC0-t/AUC0-∞” value [8, 18] was 99.9 ± 0.0% and the “AUCday 5/AUCday 1” value [8, 18] was 97%. It also gave a CLs [8, 18] of 59.6 ± 16.0 L/hr/m^2, a Cmax [8, 18] of 31177 ± 8968 ng/mL and a Vd [8, 18] of 57.6 ± 13.9 L/m^2. The “AUC0-t/AUC0-∞” value [8, 19] was 99.8 ± 0.1%, the CLs [8, 19] was 63.5 ± 16.4 L/hr/m^2 and the Vd [8, 19] was 48.8 ± 9.8 L/m^2. For the same compound, the “AUC0-t/AUC0-∞” value [8, 20] was 99.8 ± 0.1%, the CLs [8, 20] was 66.6 ± 33.5 L/hr/m^2 and the Vd [8, 20] was 90.2 ± 87.3 L/m^2. The “accumulation on repeated dosing” value ([8]; I.V. days 1 to 5) was “no HDACi accumulation”, the “dose dependence of plasma levels and AUC” value ([8]; I.V., 150-1200 mg/m^2) was “dose proportional” and the AUC(0-t) ([8]; human, plasma, iv, 150 mg/m^2, 30-min I.V. infusion, cycle 1) was 1270 ± 272 ng·h/mL. The Cmax ([8]; human, plasma, iv, 150 mg/m^2, 30-min I.V. infusion, cycle 1, read-out: Cmax) was 6560 ± 2160 ng/mL, the half-life ([8]; human, plasma, iv, 150 mg/m^2, 30-min I.V. infusion, cycle 1, read-out: t1/2) was 46.6 ± 8.7 min and the AUC(0-t) ([8]; human, plasma, iv, 300 mg/m^2, 30-min I.V. infusion, cycle 1) was 3500 ± 1100 ng·h/mL. The Cmax ([8]; human, plasma, iv, 300 mg/m^2, 30-min I.V. infusion, cycle 1, read-out: Cmax) was 15500 ± 6240 ng/mL, the half-life ([8]; human, plasma, iv, 300 mg/m^2, 30-min I.V. infusion, cycle 1, read-out: t1/2) was 44.6 ± 8 min and the AUC(0-t) ([8]; human, plasma, iv, 600 mg/m^2, 30-min I.V. infusion, cycle 1) was 10700 ± 3010 ng·h/mL. For the same compound, the half-life ([8]; human, plasma, iv, 600 mg/m^2, 30-min I.V. infusion, cycle 1, read-out: t1/2) was 43.4 ± 6.7 min, the AUC(0-t) ([8]; human, plasma, iv, 900 mg/m^2, 30-min I.V. infusion, cycle 1) was 14700 ± 3410 ng·h/mL and the Cmax ([8]; human, plasma, iv, 900 mg/m^2, 30-min I.V. infusion, cycle 1, read-out: Cmax) was 53800 ± 6380 ng/mL. The half-life ([8]; human, plasma, iv, 900 mg/m^2, 30-min I.V. infusion, cycle 1, read-out: t1/2) was 54.2 ± 8.7 min, the AUC(0-t) ([8]; human, plasma, iv, 1200 mg/m^2, 30-min I.V. infusion, cycle 1) was 22000 ± 11000 ng·h/mL and the Cmax ([8]; human, plasma, iv, 1200 mg/m^2, 30-min I.V. infusion, cycle 1, read-out: Cmax) was 52400 ± 12700 ng/mL. For the same compound, the half-life ([8]; human, plasma, iv, 1200 mg/m^2, 30-min I.V. infusion, cycle 1, read-out: t1/2) was 85.5 ± 19.6 min, the half-life ([8]; human, plasma, iv, I.V., across dose levels 150-1200 mg/m^2, read-out: elimination half-life) was 47 to 86 min and the “PXD-101 Concentration” value ([9]; 25% w/v HP-β-CD + arginine 0.157 M (27.4 mg/mL)) was 39.2 mg/mL. For the same compound, the “PXD-101 Concentration” value ([9]; 25% w/v HP-β-CD + arginine 0.314 M (54.8 mg/mL)) was 57.1 mg/mL and 57.0 mg/mL, the “PXD-101 Concentration” value ([9]; 25% w/v HP-β-CD + meglumine 0.157 M (30.7 mg/mL)) was 43.0 mg/mL and the “PXD-101 Concentration” value ([9]; 25% w/v HP-β-CD + meglumine 0.314 M (61.4 mg/mL)) was 62.5 mg/mL. The “enhancement of HDACi solubility” value ([9]; using one or more of cyclodextrin, arginine, meglumine) was about 500 fold, the solubility [10] was 0.14 mg/mL (≈ 0.44 mM) and the “plasma levels, oral versus intravenous” value ([11]; 900 and 1200 mg/m^2, FIG. 12) was “remain higher when dosed orally”. The bioavailability ([11]; human, plasma, oral formulation (gelatin capsule)) was about 33%, the tolerability ([11]; oral dosing, preliminary data) was “good tolerability” and the “time after administration at which increased acetylated histones could be detected” value [12] was “up to 24 hours”. For the same compound, the solubility thermodynamic ([13]; pH 9.07, aqueous with cosolvent or surfactant or cyclodextrin) was 13.5 mg/mL (≈ 42.4 mM), the solubility thermodynamic ([13]; pH 9.1, aqueous with cosolvent or surfactant or cyclodextrin) was 7.9 mg/mL (≈ 24.8 mM) and the solubility thermodynamic ([13]; pH 9.19, aqueous with cosolvent or surfactant or cyclodextrin) was 31.1 mg/mL (≈ 97.7 mM). The solubility thermodynamic ([13]; pH 9.2, aqueous with cosolvent or surfactant or cyclodextrin) was 21.2 mg/mL (≈ 66.6 mM), the solubility thermodynamic ([13]; pH 9.33, aqueous with cosolvent or surfactant or cyclodextrin) was 39.1 mg/mL (≈ 123 mM) and the solubility thermodynamic ([13]; pH 9.4, aqueous with cosolvent or surfactant or cyclodextrin) was 57.3 mg/mL (≈ 180 mM).

With `O=C(O)/C=C\C(=O)O` [Maleic Acid] the “pH of Solution” value [1, 15] was 1.65.

For `NCCCC[C@H](N)C(=O)O` [Lysine], the “pH of Solution” value [1] was 9.11.

In the case of `O=C(O)[C@H](O)[C@@H](O)[C@H](O[C@@H]1O[C@H](CO)[C@H](O)[C@H](O)[C@H]1O)[C@H](O)CO` [Lactobionic Acid], the “pH of Solution” value [1, 15] is reported as 2.43.

In the case of `OCCNCCO` [Diethanolamine], the “pH of Solution” value [1, 21] is reported as 9.13.

With `OC[C@H]1O[C@@H]2O[C@H]3[C@H](O)[C@@H](O)[C@@H](O[C@H]4[C@H](O)[C@@H](O)[C@@H](O[C@H]5[C@H](O)[C@@H](O)[C@@H](O[C@H]6[C@H](O)[C@@H](O)[C@@H](O[C@H]7[C@H](O)[C@@H](O)[C@@H](O[C@H]1[C@H](O)[C@H]2O)O[C@@H]7CO)O[C@@H]6CO)O[C@@H]5CO)O[C@@H]4CO)O[C@@H]3CO` [α-CD, α-cyclodextrin] the “HDACi (PXD-101) Concentration” value [14] was 0.65 mg/mL.

In the case of `NC(CO)(CO)CO` [Tris], the “pH of Solution” value [1, 21] is reported as 8.97.

Reference: patent US8835501B2, “Pharmaceutical formulations of HDAC inhibitors” (TopoTarget UK Limited, priority 2005, dated 2014)
